# Patent publication US7407973B2, “Use of pirfenidone in therapeutic regimens” (Intermune, Inc., priority 2003, dated 2008)
# Columns and labels:
# Test in all cases: Enzymatic activity of human kinase in presence of pirfenidone
# Type in all cases: biochemical
# Settings in all cases: percent of control activity in absence of pirfenidone, concentration not given
# Aurora-A = Aurora-A (Homo sapiens, UniProt O14965)
# Method: (§1) Enzymatic activity of various human kinases was assayed in the presence and the absence of pirfenidone. Percent enzyme activity of various human enzymes in the presence of substrate and pirfenidone are shown in FIGS. 1-5, and in Table 2, below, where “percent enzyme activity” is the percent of the control activity (e.g., in the absence of pirfenidone): […]
# Ax1 = Ax1 (Homo sapiens, UniProt P30530)
# Method: as §1
# Bmx = Bmx (Homo sapiens, UniProt P51813)
# Method: as §1
# CDK2/cyclinA = CDK2/cyclinA (Homo sapiens, UniProt P24941)
# Method: as §1
# CDK3/cyclinE = CDK3/cyclinE (Homo sapiens, UniProt Q00526)
# Method: as §1
# CDK7/cyclinD3 = test system: CDK7/cyclinD3
# Method: as §1
# CHK2 = CHK2 (Homo sapiens, UniProt O96017)
# Method: as §1
# CK2 = CK2 (Homo sapiens, UniProt P68400)
# Method: as §1
# CSK = CSK (Homo sapiens, UniProt P41240)
# Method: as §1
# CaMKIV = CaMKIV (Homo sapiens, UniProt Q16566)
# Method: as §1
# FGFR3 = FGFR3 (Homo sapiens, UniProt P22607)
# Method: as §1
# Fes = Fes (Homo sapiens, UniProt P07332)
# Method: as §1
# Fyn = Fyn (Homo sapiens, UniProt P06241)
# Method: as §1
# GSK3β = GSK3β (Homo sapiens, UniProt P49841)
# Method: as §1
# IKKβ = IKKβ (Homo sapiens, UniProt O14920)
# Method: as §1
# IR = IR (Homo sapiens, UniProt P06213)
# Method: as §1
# JNK1 = JNK1 (Homo sapiens, UniProt P45983)
# Method: as §1
# JNK2 = JNK2 (Homo sapiens, UniProt P45984)
# Method: as §1
# JNK3 = JNK3 (Homo sapiens, UniProt P53779)
# Method: as §1
# Lck = Lck (Homo sapiens, UniProt P06239)
# Method: as §1
# Lyn = Lyn (Homo sapiens, UniProt P07948)
# Method: as §1
# MEK1 = MEK1 (Homo sapiens, UniProt Q02750)
# Method: as §1
# MSK1 = MSK1 (Homo sapiens, UniProt O75582)
# Method: as §1
# PDGFRβ = PDGFRβ (Homo sapiens, UniProt P09619)
# Method: as §1
# PKBα = PKBα (Homo sapiens, UniProt P31749)
# Method: as §1
# PKBγ = PKBγ (Homo sapiens, UniProt Q9Y243)
# Method: as §1
# PKCα = PKCα (Homo sapiens, UniProt P17252)
# Method: as §1
# PKCβII = PKCβII (Homo sapiens, UniProt P05771)
# Method: as §1
# PKCδ = PKCδ (Homo sapiens, UniProt Q05655)
# Method: as §1
# PKCτ = test system: PKCτ
# Method: as §1
# PKD2 = PKD2 (Homo sapiens, UniProt Q9BZL6)
# Method: as §1
# PRAK = PRAK (Homo sapiens, UniProt Q8IW41)
# Method: as §1
# PRK2 = PRK2 (Homo sapiens, UniProt Q16513)
# Method: as §1
# ROCK-II = ROCK-II (Homo sapiens, UniProt O75116)
# Method: as §1
# Rsk1 = Rsk1 (Homo sapiens, UniProt Q15418)
# Method: as §1
# Rsk3 = Rsk3 (Homo sapiens, UniProt Q15349)
# Method: as §1
# SAPK2α = SAPK2α (Homo sapiens, UniProt Q16539)
# Method: as §1
# SAPK2β = SAPK2β (Homo sapiens, UniProt Q15759)
# Method: as §1
# SAPK3 = SAPK3 (Homo sapiens, UniProt P53778)
# Method: as §1
# SAPK4 = SAPK4 (Homo sapiens, UniProt O15264)
# Method: as §1
# SGK = SGK (Homo sapiens, UniProt O00141)
# Method: as §1
# TrkB = TrkB (Homo sapiens, UniProt Q16620)
# Method: as §1
# p70S6K = p70S6K (Homo sapiens, UniProt P23443)
# Method: as §1
# Sequence of PKBγ (Q9Y243 whole entry): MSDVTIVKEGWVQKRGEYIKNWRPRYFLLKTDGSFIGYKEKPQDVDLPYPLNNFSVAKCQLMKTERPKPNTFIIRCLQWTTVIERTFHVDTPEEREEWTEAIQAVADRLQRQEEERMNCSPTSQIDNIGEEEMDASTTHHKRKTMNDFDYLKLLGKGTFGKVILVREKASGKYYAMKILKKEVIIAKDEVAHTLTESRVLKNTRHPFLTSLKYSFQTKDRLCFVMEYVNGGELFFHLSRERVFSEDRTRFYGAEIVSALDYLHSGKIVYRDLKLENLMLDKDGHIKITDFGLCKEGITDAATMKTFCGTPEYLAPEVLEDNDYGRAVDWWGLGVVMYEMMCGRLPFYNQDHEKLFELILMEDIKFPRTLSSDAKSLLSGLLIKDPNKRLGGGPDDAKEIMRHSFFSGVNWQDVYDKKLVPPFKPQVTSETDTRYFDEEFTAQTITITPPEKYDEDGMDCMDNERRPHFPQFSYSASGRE
# Sequence of PRAK (Q8IW41 whole entry): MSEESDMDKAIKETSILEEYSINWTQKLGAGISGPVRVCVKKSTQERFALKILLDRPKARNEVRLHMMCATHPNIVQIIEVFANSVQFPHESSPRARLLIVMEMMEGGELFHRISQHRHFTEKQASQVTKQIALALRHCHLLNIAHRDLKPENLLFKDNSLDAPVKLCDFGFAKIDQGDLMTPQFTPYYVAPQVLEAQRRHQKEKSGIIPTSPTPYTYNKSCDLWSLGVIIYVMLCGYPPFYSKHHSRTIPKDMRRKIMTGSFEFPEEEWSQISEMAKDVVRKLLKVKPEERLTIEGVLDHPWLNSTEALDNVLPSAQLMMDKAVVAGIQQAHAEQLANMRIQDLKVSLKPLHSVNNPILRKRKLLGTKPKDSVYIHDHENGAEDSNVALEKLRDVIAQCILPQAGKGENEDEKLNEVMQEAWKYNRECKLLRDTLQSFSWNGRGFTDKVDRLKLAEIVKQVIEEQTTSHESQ
# Sequence of PKBα (P31749 whole entry): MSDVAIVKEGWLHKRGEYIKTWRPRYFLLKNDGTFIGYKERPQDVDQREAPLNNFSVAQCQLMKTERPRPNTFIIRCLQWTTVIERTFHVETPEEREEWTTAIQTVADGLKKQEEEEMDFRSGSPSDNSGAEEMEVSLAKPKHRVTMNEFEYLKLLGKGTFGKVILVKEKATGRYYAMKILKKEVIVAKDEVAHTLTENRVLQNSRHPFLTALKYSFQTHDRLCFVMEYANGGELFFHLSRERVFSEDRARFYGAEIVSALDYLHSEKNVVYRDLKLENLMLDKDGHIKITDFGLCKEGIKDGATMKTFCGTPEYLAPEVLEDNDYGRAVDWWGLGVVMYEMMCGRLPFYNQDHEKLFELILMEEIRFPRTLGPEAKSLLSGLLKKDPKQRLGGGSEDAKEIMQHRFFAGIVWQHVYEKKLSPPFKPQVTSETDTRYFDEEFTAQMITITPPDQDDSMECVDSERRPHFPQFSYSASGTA
# Sequence of SAPK2β (Q15759 whole entry): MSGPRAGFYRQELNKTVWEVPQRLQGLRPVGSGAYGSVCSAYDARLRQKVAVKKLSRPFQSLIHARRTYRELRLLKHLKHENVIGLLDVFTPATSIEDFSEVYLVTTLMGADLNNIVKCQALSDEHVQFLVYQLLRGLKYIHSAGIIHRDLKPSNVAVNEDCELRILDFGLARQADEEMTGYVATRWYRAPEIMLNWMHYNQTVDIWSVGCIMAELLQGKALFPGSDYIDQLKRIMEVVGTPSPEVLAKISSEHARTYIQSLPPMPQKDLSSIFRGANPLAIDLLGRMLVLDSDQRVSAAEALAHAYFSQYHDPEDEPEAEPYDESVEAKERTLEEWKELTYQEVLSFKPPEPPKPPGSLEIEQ
# Sequence of SAPK3 (P53778 whole entry): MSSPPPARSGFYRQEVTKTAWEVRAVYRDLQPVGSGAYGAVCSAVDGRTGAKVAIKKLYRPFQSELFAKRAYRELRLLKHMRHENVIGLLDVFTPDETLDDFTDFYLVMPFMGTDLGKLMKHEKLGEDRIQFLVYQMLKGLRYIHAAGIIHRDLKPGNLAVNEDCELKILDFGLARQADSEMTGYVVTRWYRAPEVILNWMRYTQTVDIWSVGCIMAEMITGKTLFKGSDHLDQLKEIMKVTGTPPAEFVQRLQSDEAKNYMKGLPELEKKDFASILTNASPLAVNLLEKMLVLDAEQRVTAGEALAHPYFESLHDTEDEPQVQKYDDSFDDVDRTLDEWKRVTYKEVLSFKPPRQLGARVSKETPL
# Sequence of SGK (O00141 whole entry): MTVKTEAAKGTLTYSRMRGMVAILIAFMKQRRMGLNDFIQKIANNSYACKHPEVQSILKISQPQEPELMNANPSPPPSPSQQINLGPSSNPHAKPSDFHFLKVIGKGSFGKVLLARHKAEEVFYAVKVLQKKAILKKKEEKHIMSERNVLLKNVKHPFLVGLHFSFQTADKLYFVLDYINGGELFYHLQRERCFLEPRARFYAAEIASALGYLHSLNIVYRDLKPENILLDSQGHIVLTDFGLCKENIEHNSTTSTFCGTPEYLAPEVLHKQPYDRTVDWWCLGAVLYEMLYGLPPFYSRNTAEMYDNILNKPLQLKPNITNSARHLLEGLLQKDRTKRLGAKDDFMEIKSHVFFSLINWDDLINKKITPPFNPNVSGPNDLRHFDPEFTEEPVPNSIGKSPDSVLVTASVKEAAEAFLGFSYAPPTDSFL
# Sequence of IR (P06213 28-1382): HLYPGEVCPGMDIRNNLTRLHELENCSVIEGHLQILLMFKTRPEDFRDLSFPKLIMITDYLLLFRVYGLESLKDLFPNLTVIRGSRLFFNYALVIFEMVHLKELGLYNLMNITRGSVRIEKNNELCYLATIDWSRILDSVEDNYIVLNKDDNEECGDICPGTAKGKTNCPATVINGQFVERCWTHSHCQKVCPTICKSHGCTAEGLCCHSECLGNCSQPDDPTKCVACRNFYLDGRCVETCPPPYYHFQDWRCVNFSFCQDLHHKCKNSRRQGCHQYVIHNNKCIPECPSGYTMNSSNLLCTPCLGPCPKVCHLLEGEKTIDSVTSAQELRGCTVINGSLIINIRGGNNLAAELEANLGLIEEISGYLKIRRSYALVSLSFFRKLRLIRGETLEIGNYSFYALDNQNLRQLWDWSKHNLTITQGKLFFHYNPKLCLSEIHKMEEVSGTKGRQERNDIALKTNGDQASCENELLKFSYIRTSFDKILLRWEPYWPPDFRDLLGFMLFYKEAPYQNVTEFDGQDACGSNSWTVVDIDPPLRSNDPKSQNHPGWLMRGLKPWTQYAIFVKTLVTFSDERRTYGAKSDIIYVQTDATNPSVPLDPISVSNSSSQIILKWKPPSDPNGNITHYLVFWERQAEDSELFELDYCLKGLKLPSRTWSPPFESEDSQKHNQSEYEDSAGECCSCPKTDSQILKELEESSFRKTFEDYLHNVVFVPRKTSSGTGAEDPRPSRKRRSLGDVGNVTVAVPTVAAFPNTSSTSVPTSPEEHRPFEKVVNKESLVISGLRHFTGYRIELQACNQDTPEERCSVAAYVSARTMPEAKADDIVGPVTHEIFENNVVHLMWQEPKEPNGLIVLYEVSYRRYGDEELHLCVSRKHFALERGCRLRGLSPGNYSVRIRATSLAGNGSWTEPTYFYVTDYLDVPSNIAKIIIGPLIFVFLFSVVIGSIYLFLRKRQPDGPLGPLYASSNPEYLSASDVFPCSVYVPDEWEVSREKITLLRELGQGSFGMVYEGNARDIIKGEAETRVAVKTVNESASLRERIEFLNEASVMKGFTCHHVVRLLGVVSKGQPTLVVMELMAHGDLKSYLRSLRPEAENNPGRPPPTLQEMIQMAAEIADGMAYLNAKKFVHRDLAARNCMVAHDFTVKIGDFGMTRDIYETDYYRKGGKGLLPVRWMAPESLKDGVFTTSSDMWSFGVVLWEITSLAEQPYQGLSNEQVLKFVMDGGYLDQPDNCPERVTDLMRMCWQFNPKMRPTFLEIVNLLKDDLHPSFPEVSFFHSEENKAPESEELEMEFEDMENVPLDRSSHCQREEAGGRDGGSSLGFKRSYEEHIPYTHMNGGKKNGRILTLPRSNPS
# Sequence of Aurora-A (O14965 whole entry): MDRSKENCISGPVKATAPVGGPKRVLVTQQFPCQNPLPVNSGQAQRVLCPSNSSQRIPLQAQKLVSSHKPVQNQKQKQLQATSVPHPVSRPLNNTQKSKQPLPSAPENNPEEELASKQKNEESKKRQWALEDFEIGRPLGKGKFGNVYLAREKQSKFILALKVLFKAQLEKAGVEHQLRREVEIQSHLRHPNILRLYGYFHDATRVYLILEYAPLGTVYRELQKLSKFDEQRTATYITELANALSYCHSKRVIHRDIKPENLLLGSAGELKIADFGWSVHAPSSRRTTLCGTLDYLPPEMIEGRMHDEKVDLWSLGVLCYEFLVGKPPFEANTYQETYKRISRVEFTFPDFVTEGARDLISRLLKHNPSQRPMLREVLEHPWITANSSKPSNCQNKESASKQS
compound,measurement,setting,value
"Cc1ccc(=O)n(-c2ccccc2)c1 [pirfenidone, 5-methyl-1-phenyl-2-(1H)-pyridone]",% Activity,Aurora-A,120%
same,% Activity,Ax1,93%
same,% Activity,Bmx,86%
same,% Activity,CDK2/cyclinA,92%
same,% Activity,CDK3/cyclinE,86%
same,% Activity,CDK7/cyclinD3,92%
same,% Activity,CHK2,84%
same,% Activity,CK2,94%
same,% Activity,CSK,64%
same,% Activity,CaMKIV,107%
same,% Activity,FGFR3,104%
same,% Activity,Fes,88%
same,% Activity,Fyn,97%
same,% Activity,GSK3β,91%
same,% Activity,IKKβ,90%
same,% Activity,IR,97%
same,% Activity,JNK1,105%
same,% Activity,JNK2,97%
same,% Activity,JNK3,106%
same,% Activity,Lck,104%
same,% Activity,Lyn,92%
same,% Activity,MEK1,100%
same,% Activity,MSK1,93%
same,% Activity,PDGFRβ,101%
same,% Activity,PKBα,88%
same,% Activity,PKBγ,111%
same,% Activity,PKCα,94%
same,% Activity,PKCβII,100%
same,% Activity,PKCδ,102%
same,% Activity,PKCτ,96%
same,% Activity,PKD2,98%
same,% Activity,PRAK,90%
same,% Activity,PRK2,90%
same,% Activity,ROCK-II,90%
same,% Activity,Rsk1,88%
same,% Activity,Rsk3,115%
same,% Activity,SAPK2α,70%
same,% Activity,SAPK2β,74%
same,% Activity,SAPK3,46%
same,% Activity,SAPK4,98%
same,% Activity,SGK,106%
same,% Activity,TrkB,101%
same,% Activity,p70S6K,96%
